# Measured values published in publication PMC7408547, “Bivalent Inhibitor with Selectivity for Trimeric MMP-9 Amplifies Neutrophil Chemotaxis and Enables Functional Studies on MMP-9 Proteoforms” (Cells, 2020).
# System: secretions of fMLF stimulated human granulocytes
# Assay: Gelatinolysis in secretions of fMLF stimulated human granulocytes
# Type: biochemical
# Settings: neutrophil elastase inhibitor 20 µM; depending on the donor (n = 4)
# Protocol: To determine the inhibition of gelatinolytic activity, we used a previously optimized gelatin degradation assay. Activated MMP-9, activated MMP-2, neutrophil elastase or supernatants of stimulated neutrophils, were incubated with different concentrations of inhibitors and incubated for 30 min at 37 °C. Next, dye-quenched gelatin (DQ™-gelatin, Invitrogen, Carlsbad, CA, USA) was added at a final concentration of 2.5 µg/mL and the increase in fluorescence over time was measured with the CLARIOstar microplate reader (BMG Labtech, Ortenberg, Germany). For other MMPs, the OmniMMP substrate peptide (Mca-PLGL-Dpa-AR-NH2, cat. no. BML-P126-0001, Enzo Life Sciences, Farmingdale, NY, USA) was used at a final concentration of 2.5 µg/mL. For ADAM17 the fluorogenic peptide Mca-PLAQAV-Dpa-RSSSR-NH2 (ES003, R & D systems, Minneapolis, MO, USA) and for neutrophil elastase the fluorogenic substrate MeOSuc-AAPV-AMC (cat. no. 324740, Merck Millipore, Darmstadt, Germany) were used. Proteolytic activity was determined by linear regression of the fluorescence curve and the percentage inhibition was calculated through comparison with the positive control (no inhibitors). When testing supernatants from human neutrophils, the assay was performed in the presence of 20 µM neutrophil elastase inhibitor (Elastase Inhibitor IV, Calbiochem, Darmstadt, Germany).
# Neutrophils were isolated from fresh blood from healthy donors, via density gradient centrifugation as described. To obtain neutrophil degranulate, neutrophils were suspended in degranulation buffer (120 mM NaCl, 15 mM CaCl2, 20 mM Tris/HCl pH 7.5) at a concentration of 10^7 cells/mL and degranulation was induced by incubating neutrophils with N-formyl-methionyl-leucyl-phenylalanine (fMLF) (final concentration 0.5 µM) for 20 min at 37 °C as previously described. Next, the supernatant was collected by centrifugation. For fresh blood donations, all subjects gave written informed consent in accordance with the Declaration of Helsinki.
structure (smiles),measurement,value
"Cc1cccc(C(=O)n2nc(C#N)c3ccccc32)c1 [neutrophil elastase inhibitor, reference compound]",percentage of gelatinolytic activity inhibited,84–97%
